What all share (assay): scanMAX kinase panel
Assay type in all cases: binding
Settings in all cases: read-out: % Control; for remaining binding at 1 µM: 1000 nM

The target in experiment [1] is T1, AXL (Homo sapiens, UniProt P30530).
T1 construct: purchased DiscoverX scanMAX
T1 sequence (P30530 26-894): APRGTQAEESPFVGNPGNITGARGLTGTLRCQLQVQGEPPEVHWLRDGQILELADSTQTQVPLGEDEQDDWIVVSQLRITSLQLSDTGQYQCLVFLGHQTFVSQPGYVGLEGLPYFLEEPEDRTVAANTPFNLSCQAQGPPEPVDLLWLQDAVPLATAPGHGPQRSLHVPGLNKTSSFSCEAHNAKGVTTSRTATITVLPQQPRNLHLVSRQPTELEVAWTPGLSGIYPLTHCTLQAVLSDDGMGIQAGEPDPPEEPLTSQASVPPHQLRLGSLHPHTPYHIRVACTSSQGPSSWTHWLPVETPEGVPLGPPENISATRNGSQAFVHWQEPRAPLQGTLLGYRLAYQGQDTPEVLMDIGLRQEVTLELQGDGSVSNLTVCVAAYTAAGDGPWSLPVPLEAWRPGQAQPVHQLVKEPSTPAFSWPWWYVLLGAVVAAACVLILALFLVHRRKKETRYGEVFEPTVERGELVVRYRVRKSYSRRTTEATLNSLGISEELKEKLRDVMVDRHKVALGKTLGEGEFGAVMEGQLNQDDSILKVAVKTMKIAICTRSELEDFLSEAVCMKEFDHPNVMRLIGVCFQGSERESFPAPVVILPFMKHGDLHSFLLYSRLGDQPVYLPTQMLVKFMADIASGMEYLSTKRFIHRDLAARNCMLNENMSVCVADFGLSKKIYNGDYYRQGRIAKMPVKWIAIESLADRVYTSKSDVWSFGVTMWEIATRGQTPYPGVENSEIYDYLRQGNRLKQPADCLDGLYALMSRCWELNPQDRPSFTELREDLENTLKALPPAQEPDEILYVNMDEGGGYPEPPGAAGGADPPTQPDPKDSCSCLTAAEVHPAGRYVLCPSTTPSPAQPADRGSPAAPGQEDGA
The source says:
(§1) Supplemental Table S2. scanMAXSM Kinome Assay Results. Complete tabulated data of all 468 kinases from the panel, including
(§2) 403 wild-type and 65 mutant isoforms. […] Cmpd 11 and Cmpd 24

The target of experiment [2] is T2, CDK8 (Homo sapiens, UniProt P49336).
T2 construct: purchased DiscoverX scanMAX
T2 sequence (P49336 whole entry): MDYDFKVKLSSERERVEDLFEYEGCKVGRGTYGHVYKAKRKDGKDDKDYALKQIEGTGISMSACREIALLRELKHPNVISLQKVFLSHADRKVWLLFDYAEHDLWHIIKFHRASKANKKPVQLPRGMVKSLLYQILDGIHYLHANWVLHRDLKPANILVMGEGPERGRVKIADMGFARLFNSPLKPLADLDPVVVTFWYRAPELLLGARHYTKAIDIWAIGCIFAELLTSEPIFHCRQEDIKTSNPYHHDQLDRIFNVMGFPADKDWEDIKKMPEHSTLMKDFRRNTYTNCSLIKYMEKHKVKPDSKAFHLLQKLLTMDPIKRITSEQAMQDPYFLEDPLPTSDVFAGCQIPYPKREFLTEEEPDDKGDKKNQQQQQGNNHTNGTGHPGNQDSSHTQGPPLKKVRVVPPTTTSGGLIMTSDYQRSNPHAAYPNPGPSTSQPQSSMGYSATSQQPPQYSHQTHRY
From the text: as §1, §2

For experiment [3], the target named is T3, LOK (Homo sapiens, UniProt O94804).
T3 construct: purchased DiscoverX scanMAX
T3 sequence (O94804 whole entry): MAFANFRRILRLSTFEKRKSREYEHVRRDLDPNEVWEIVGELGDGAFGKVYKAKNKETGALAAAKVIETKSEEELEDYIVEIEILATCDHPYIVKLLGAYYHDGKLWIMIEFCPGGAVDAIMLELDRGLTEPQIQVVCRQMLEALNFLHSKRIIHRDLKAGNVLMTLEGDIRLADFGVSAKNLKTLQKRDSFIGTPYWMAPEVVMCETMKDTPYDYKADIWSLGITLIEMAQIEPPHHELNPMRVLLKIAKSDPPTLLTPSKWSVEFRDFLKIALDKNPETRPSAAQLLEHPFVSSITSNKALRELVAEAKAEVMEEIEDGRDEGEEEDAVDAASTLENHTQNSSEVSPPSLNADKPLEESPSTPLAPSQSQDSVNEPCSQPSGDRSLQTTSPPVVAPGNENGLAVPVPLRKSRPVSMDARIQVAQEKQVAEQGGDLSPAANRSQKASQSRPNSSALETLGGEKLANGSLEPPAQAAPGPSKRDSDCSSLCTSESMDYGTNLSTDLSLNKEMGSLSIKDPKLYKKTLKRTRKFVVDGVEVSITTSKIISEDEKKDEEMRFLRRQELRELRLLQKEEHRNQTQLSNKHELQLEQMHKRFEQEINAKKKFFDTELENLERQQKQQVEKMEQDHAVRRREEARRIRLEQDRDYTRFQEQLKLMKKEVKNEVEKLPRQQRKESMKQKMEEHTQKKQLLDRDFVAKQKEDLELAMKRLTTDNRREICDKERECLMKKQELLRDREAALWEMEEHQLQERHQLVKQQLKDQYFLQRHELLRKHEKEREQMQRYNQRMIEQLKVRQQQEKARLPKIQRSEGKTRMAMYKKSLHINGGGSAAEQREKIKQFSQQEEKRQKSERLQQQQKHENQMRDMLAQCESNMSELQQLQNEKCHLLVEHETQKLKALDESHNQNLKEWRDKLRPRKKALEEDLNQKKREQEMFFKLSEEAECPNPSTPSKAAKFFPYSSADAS
From the text: as §1, §2

For experiment [4], the target named is T4, GCN2(Kin.Dom.2,S808G) (Homo sapiens, UniProt Q9P2K8, S808G).
T4 construct: GCN2(Kin.Dom.2,S808G); purchased DiscoverX scanMAX
T4 sequence (Q9P2K8 590-1001 S808G limits assumed): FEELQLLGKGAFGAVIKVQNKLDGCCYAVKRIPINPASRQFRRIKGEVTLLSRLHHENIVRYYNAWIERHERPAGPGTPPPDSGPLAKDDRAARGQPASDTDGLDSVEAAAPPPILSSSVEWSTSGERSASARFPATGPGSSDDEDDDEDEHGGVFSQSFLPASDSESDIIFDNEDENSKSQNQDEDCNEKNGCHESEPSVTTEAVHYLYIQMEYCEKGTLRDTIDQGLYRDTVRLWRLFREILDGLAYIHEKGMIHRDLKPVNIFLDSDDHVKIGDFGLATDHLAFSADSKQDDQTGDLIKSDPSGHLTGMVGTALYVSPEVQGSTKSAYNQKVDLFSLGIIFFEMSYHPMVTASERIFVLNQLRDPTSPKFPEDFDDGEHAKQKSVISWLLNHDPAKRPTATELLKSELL
From the text: as §1, §2

Experiment [5] addresses T5, MAP3K15 (Homo sapiens, UniProt Q6ZN16).
T5 construct: purchased DiscoverX scanMAX
T5 sequence (Q6ZN16 1-1313): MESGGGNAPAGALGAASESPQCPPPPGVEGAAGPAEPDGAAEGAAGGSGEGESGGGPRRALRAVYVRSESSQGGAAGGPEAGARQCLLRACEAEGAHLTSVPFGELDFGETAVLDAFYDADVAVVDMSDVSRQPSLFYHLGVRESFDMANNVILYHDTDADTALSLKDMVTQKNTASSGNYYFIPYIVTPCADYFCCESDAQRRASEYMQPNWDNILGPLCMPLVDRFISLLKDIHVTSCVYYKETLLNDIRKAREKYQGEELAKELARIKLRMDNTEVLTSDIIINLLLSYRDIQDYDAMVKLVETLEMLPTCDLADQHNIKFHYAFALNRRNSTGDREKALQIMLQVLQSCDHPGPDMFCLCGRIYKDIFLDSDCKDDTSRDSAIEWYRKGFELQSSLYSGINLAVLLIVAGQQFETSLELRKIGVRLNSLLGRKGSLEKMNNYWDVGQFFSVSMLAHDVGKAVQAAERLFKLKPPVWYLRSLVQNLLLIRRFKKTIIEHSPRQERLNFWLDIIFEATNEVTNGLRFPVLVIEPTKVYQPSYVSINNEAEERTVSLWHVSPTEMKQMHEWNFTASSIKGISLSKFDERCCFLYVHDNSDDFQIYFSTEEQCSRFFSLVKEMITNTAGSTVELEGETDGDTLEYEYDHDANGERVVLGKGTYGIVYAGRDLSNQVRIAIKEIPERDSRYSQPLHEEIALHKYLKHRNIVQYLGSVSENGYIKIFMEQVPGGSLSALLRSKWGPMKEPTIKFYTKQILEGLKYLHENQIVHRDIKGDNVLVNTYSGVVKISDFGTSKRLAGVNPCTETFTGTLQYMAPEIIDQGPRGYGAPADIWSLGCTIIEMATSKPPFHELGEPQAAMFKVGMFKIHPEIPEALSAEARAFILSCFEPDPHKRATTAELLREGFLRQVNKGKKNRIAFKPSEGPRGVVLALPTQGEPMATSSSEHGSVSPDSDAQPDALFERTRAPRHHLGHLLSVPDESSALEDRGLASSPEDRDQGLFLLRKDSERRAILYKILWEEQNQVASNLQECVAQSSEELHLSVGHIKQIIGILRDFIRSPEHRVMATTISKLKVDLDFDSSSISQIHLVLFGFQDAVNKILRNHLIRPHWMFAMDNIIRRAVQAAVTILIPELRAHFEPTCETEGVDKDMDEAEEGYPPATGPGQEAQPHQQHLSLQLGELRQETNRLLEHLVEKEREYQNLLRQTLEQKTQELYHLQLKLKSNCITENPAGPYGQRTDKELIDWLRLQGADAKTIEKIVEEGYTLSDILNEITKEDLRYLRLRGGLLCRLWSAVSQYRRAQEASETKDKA
From the text: as §1, §2

For `Cc1cc(NC(=O)[C@H](O)c2cccc(F)c2)ccc1-c1cn(C)c2ncnc(N)c12` [Compound 11, (R)-N-(4-(4-amino-7-methyl-7H-pyrrolo[2,3-d]pyrimidin-5-yl)-3-methylphenyl)-2-(3-fluorophenyl)-2-hydroxy acetamide], the remaining binding at 1 µM in experiment [1] was 56%; in experiment [2], 2.5%; in experiment [3], 4%; in experiment [4], 84%; in experiment [5], 29%.
Turning to `Cc1nc(N)c2c(-c3ccc(NC(=O)[C@H](O)c4cccc(C(F)(F)F)c4)cc3C)cn(C)c2n1` [Compound 26], the remaining binding at 0.1 µM in experiment [1] (100 nM) is 99%; in experiment [2] (100 nM) it was 100%; in experiment [3] (100 nM) it was 94%; in experiment [4] (100 nM) it was 76%; in experiment [5] (100 nM), 100%. Further, the remaining binding at 1 µM in experiment [1] was found to be 0.7%; in experiment [2], 57%; in experiment [3], 12%; in experiment [4], 94%; in experiment [5], 99%.
On to `Cc1nc(N)c2c(-c3ccc(NC(=O)[C@H](O)c4cccc(F)c4)cc3C)cn(C)c2n1` [Compound 24], for which the remaining binding at 1 µM in experiment [1] worked out at 100%; in experiment [2], 98%; in experiment [3], 88%; in experiment [4], 100%; in experiment [5] it was 82%.

(Values after paper PMC9611727, “Optimization of a Novel Mandelamide-Derived Pyrrolopyrimidine Series of PERK Inhibitors” (Pharmaceutics, 2022).)
